From paper PMC11944677, “Integrating Surface Plasmon Resonance and Docking Analysis for Mechanistic Insights of Tryptase Inhibitors” (Molecules, 2025)

Target: T1, human tryptase beta-2 (hTPSB2) (Homo sapiens, UniProt P20231)
T1 construct: gene TPSB2
Assay: biochemical

T1 sequence (P20231 31-275): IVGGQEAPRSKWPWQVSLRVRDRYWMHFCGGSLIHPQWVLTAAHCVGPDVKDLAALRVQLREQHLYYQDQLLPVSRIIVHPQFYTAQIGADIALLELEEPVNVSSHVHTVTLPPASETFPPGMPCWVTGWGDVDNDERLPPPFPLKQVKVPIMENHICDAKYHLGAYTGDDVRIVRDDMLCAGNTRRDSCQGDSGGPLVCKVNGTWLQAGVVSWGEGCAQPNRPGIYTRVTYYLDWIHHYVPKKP

In the case of C[Si](C)(O)c1coc2ccc(C(=O)N3CCC(c4cccc(CN)c4)CC3)cc12 [#2m, compound #2m], the Kd is reported as 81 nM.

In the case of C[Si](C)(O[Si](C)(C)c1coc2ccc(C(=O)N3CCC(c4cccc(CN)c4)CC3)cc12)c1coc2ccc(C(=O)N3CCC(c4cccc(CN)c4)CC3)cc12 [#2d, compound #2d], the Kd is reported as 2.1 nM.
